One experiment addresses T1, CDK2/CycE (Homo sapiens, UniProt P24941).
T1 construct: purchased ProQinase GmbH (Freiburg, Germany); host or cells: insect cells (Sf9)
Nature of the experiment: CDK2/CycE kinase assay (TR-FRET, 2 mM ATP). The conditions noted are these: 2 mM ATP (high ATP); median; read-out: CDK2/CyclinE, 2 mM ATP (high ATP), IC50 (median). It counts as biochemical. The source says: CDK2/CycE-inhibitory activity of compounds of the present invention was quantified employing the CDK2/CycE TR-FRET assay as described in the following paragraphs.
Recombinant fusion proteins of GST and human CDK2 and of GST and human CycE, expressed in insect cells (Sf9) and purified by Glutathion-Sepharose affinity chromatography, were purchase from ProQinase GmbH (Freiburg, Germany). As substrate for the kinase reaction biotinylated peptide biotin-Ttds-YISPLKSPYKISEG (C-terminus in amid form) was used which can be purchased e.g. form the company JERINI peptide technologies (Berlin, Germany).
For the assay 50 nanoL of a 100 fold concentrated solution of the test compound in DMSO was pipetted into a black low volume 384 well microtiter plate or a black 1536 well microtiter plate (both Greiner Bio-One, Frickenhausen, Germany), 2 microL of a solution of CDK2/CycE in aqueous assay buffer [50 millimol/L Tris/HCl pH 8.0, 10 millimol/L MgCl2, 1.0 millimol/L dithiothreitol, 0.1 millimol/L sodium ortho-vanadate, 0.01% (v/v) Nonidet-P40 (Sigma)] were added and the mixture was incubated for 15 min at 22° C. to allow pre-binding of the test compounds to the enzyme before the start of the kinase reaction. Then the kinase reaction was started by the addition of 3 microL of a solution of adenosine-tri-phosphate (ATP, 3.33 millimol/L=>final conc. in the 5 microL assay volume is 2 millimol/L) and substrate (1.25 micromol/L=>final conc. in the 5 microL assay volume is 0.75 micromol/L) in assay buffer and the resulting mixture was incubated for a reaction time of 25 min at 22° C. The concentration of CDK2/CycE was adjusted depending of the activity of the enzyme lot and was chosen appropriate to have the assay in the linear range, typical concentrations were in the range of 10 ng/ml. The reaction was stopped by the addition of 3 microL of a solution of TR-FRET detection reagents (0.333 micromol/L streptavidine-XL665 [Cisbio Bioassays, Codolet, France] and 1.67 nanomol/L anti-RB(pSer807/pSer8l 1)-antibody from BD Pharmingen [#558389] and 2 nanomol/L LANCE EU-W1024 labeled anti-mouse IgG antibody [Perkin-Elmer, product no. AD0077, as an alternative a Terbium-cryptate-labeled anti-mouse IgG antibody from Cisbio Bioassays can be used]) in an aqueous EDTA-solution (167 millimol/L EDTA, 0.2% (w/v) bovine serum albumin in 100 millimol/L HEPES pH 7.5).
The resulting mixture was incubated 1 h at 22° C. to allow the formation of complex between the phosphorylated biotinylated peptide and the detection reagents. Subsequently the amount of phosphorylated substrate was evaluated by measurement of the resonance energy transfer from the Eu-chelate to the streptavidine-XL. Therefore, the fluorescence emissions at 620 nm and 665 nm after excitation at 350 nm was measured in a TR-FRET reader, e.g. a Pherastar (BMG Labtechnologies, Offenburg, Germany) or a Viewlux (Perkin-Elmer). The ratio of the emissions at 665 nm and at […] was taken as the measure for the amount of phosphorylated substrate. The data were normalised (enzyme reaction without inhibitor=0% inhibition, all other assay components but no enzyme=100% inhibition).
A general note: TR-FRET usually uses a lanthanide donor and a delayed reading to cut background.

Experiment [1] concerns MDA-MB-231, human breast cancer cells. Nature of the experiment: Proliferation assay MDA-MB-231 (crystal violet, 4 days). It counts as cell-based. The conditions noted are these: Homo sapiens, MDA-MB-231, 96 h, MDA-MB-231 cells, median, read-out: Prolif-MDA MB-231, IC50-[mol/l] (median). The protocol: Human tumour cells were originally obtained from the American Type Culture Collection (ATCC), or from the Deutsche Sammlung von Mikroorganismen und Zellkulturen (DSMZ, German Collection of Microorganisms and Cell Cultures). Cultivated tumour cells (CAL-120, human breast adenocarcinoma cells, DSMZ ACC-459; MDA-MB-231, human breast cancer cells, ATCC HTB-26) were plated at a density of 4,000 cells/well in a 96-well multititer plate in 200 microL of their respective growth medium supplemented 10% fetal calf serum. After 24 hours, the cells of one plate (zero-point plate) were stained with crystal violet (see below), while the medium of the other plates was supplemented with the test substances in various concentrations (0 micromol/L, as well as in the range of 0.01-10 micromol/L; the final concentration of the solvent dimethyl sulfoxide was adjusted to 0.1%) using a Tecan HP D300 Digital Dispenser. The cells were incubated for 4 days in the presence of test substances. Cell proliferation was determined by staining the cells with crystal violet: the cells were fixed by adding 20 microL/measuring point of an 11% glutaric aldehyde solution for 15 minutes at room temperature. After three washing cycles of the fixed cells with water, the plates were dried at room temperature. The cells were stained by adding 100 microL/measuring point of a 0.1% crystal violet solution (pH 3.0). After three washing cycles of the stained cells with water, the plates were dried at room temperature. The dye was dissolved by adding 100 microL/measuring point of a 10% acetic acid solution. The extinction was determined by photometry at a wavelength of 595 nm. The change of cell number, in percent, was calculated by normalization of the measured values to the extinction values of the zero-point plate (=0%) and the extinction of the untreated (0 μM) cells (=100%). The IC50 values (inhibitory concentration at 50% of maximal effect) were determined by means of a 4 parameter fit.

Where only a bound is given, the exact number is not on record here.

For `C[C@@H]1CN(c2nc(NCc3nc4ccccc4[nH]3)n3ncc(Br)c3n2)C[C@H](C)N1` [Example 142, N-(1H-benzimidazol-2-ylmethyl)-8-bromo-2-[(3R,5S)-3,5-dimethylpiperazin-1-yl]pyrazolo[1,5-a][1,3,5]triazin-4-amine], the IC50 is over 19.8 µM on CDK2/CycE and 0.0237 µM in experiment [1].

Take `Cc1ccc2[nH]c(CNc3nc(N4CCN(C)CC4)nc4c(Br)cnn34)nc2c1` [Example 158, 8-bromo-N-[(5-methyl-1H-benzimidazol-2-yl)methyl]-2-(4-methylpiperazin-1-yl)pyrazolo[1,5-a][1,3,5]triazin-4-amine]: the results for the IC50 (at CDK2/CycE; in experiment [1]) were 5.3 µM and 0.00424 µM, respectively.

For `CN1CCN(c2nc(NCc3nc4ccccc4[nH]3)n3ncc(Br)c3n2)C(CO)C1` (centres unmarked) [Example 155, [1-[4-(1H-benzimidazol-2-ylmethylamino)-8-bromo-pyrazolo[1,5-a][1,3,5]triazin-2-yl]-4-methyl-piperazin-2-yl]methanol], the values for the IC50 (at CDK2/CycE; in experiment [1]) were 9.28 µM and 0.174 µM, respectively.

As to `CN1CCN(c2nc(NCc3nc4c(F)c(F)ccc4[nH]3)n3ncc(Br)c3n2)CC1` [Example 133, 8-bromo-N-[(4,5-difluoro-1H-benzimidazol-2-yl)methyl]-2-(4-methylpiperazin-1-yl)pyrazolo[1,5-a][1,3,5]triazin-4-amine], the IC50 on CDK2/CycE was 15.1 µM; in experiment [1], 0.00494 µM.

For `CCN1CCN(c2nc(NCc3nc4ccccc4[nH]3)n3ncc(Br)c3n2)CC1` [Example 137, N-[(1H-benzimidazol-2-yl)methyl]-8-bromo-2-(4-ethylpiperazin-1-yl)pyrazolo[1,5-a][1,3,5]triazin-4-amine], the IC50 in experiment [1] came out at 0.192 µM.

With `COc1ccc2[nH]c(CNc3nc(N4CCN(C)CC4)nc4c(Br)cnn34)nc2c1` [Example 161, 8-bromo-N-[(5-methoxy-1H-benzimidazol-2-yl)methyl]-2-(4-methylpiperazin-1-yl)pyrazolo[1,5-a][1,3,5]triazin-4-amine], the IC50 in experiment [1] is 0.0113 µM.

As to `Fc1cc(F)cc(-c2nnc(CNc3nc(N4CCOCC4)nc4c(Br)cnn34)[nH]2)c1` [Example 105, 8-bromo-N-{[5-(3,5-difluorophenyl)-4H-1,2,4-triazol-3-yl]methyl}-2-(morpholin-4-yl)pyrazolo[1,5-a][1,3,5]triazin-4-amine], the IC50 on CDK2/CycE worked out at 0.826 µM.

In the case of `Brc1cnn2c(NCc3nc4ccccc4[nH]3)nc(N3C[C@@H]4C[C@H]3CO4)nc12` [Example 103, N-[(1H-benzimidazol-2-yl)methyl]-8-bromo-2-[(1S,4S)-2-oxa-5-azabicyclo[2.2.1]heptan-5-yl]pyrazolo[1,5-a][1,3,5]triazin-4-amine], on CDK2/CycE, the IC50 turned out to be 9.05 µM.

For `C[C@@H]1CN(c2nc(NCc3nnc(-c4ccccc4)[nH]3)n3ncc(Br)c3n2)C[C@H](C)N1C` [Example 125, 8-bromo-N-[(5-phenyl-4H-1,2,4-triazol-3-yl)methyl]-2-[(3R,5S)-3,4,5-trimethylpiperazin-1-yl]pyrazolo[1,5-a][1,3,5]triazin-4-amine], the IC50 on CDK2/CycE is 13.2 µM.

Turning to `C[C@@H]1CN(c2nc(NCc3nc4c(F)cccc4[nH]3)n3ncc(Br)c3n2)C[C@H](C)O1` [Example 109, 8-bromo-2-[(2R,6S)-2,6-dimethylmorpholin-4-yl]-N-[(4-fluoro-1H-benzimidazol-2-yl)methyl]pyrazolo[1,5-a][1,3,5]triazin-4-amine], the IC50 on CDK2/CycE was found to be 4.01 µM.

As for `Brc1cnn2c(NCc3nc4ccccc4[nH]3)nc(N3CCN4CCC[C@H]4C3)nc12` [Example 148, N-[(1H-benzimidazol-2-yl)methyl]-8-bromo-2-[(8aS)-hexahydropyrrolo[1,2-a]pyrazin-2 (1 H)-yl]pyrazolo[1,5-a][1,3,5]triazin-4-amine], the IC50 at CDK2/CycE was found to be 12.6 µM.

In the case of `Fc1ccc(-c2nnc(CNc3nc(N4CCOCC4)nc4c(Br)cnn34)[nH]2)cc1F` [Example 99, 8-bromo-N-{[5-(3,4-difluorophenyl)-4H-1,2,4-triazol-3-yl]methyl}-2-(morpholin-4-yl)pyrazolo[1,5-a][1,3,5]triazin-4-amine], the IC50 at CDK2/CycE stood at 1.77 µM.

For the compound `c1ccc(-c2cnn3c(NCc4nc5ccccc5[nH]4)nc(N4CCOCC4)nc23)cc1` [Example 104, N-[(1H-benzimidazol-2-yl)methyl]-2-(morpholin-4-yl)-8-phenylpyrazolo[1,5-a][1,3,5]triazin-4-amine], the IC50 on CDK2/CycE was over 20 µM.

Regarding `Fc1cccc2[nH]c(CNc3nc(N4CCOCC4)nc4c(Br)cnn34)nc12` [Example 97, 8-bromo-N-[(4-fluoro-1H-benzimidazol-2-yl)methyl]-2-(morpholin-4-yl)pyrazolo[1,5-a][1,3,5]triazin-4-amine], at CDK2/CycE, the IC50 turned out to be 3.24 µM.

For the compound `CC1(C)CN(c2nc(NCc3nc4ccccc4[nH]3)n3ncc(C4CC4)c3n2)CCO1` [Example 123, N-[(1H-benzimidazol-2-yl)methyl]-8-cyclopropyl-2-(2,2-dimethylmorpholin-4-yl)pyrazolo[1,5-a][1,3,5]triazin-4-amine], the IC50 on CDK2/CycE was over 20 µM.

`CC(C)c1cnn2c(NCc3nc4ccccc4[nH]3)nc(N3CCCOCC3)nc12` [Example 8, N-[(1H-benzimidazol-2-yl)methyl]-2-(1,4-oxazepan-4-yl)-8-(propan-2-yl)pyrazolo[1,5-a][1,3,5]triazin-4-amine]: the IC50 at CDK2/CycE worked out at 11.1 µM.

Take `Cc1ccc(-c2nnc(CNc3nc(N4CCOCC4)nc4c(Br)cnn34)[nH]2)cc1F` [Example 98, 8-bromo-N-{[5-(3-fluoro-4-methylphenyl)-4H-1,2,4-triazol-3-yl]methyl}-2-(morpholin-4-yl)pyrazolo[1,5-a][1,3,5]triazin-4-amine]: the IC50 on CDK2/CycE was determined as 2.03 µM.

For the compound `NCCc1ccc2[nH]c(CNc3nc(N4CCOCC4)nc4c(Br)cnn34)nc2c1.O=CO` [Example 113, formic acid-N-{[5-(2-aminoethyl)-1H-benzimidazol-2-yl]methyl}-8-bromo-2-(morpholin-4-yl)pyrazolo[1,5-a][1,3,5]triazin-4-amine (1/1)], on CDK2/CycE, the IC50 was found to be 1.2 µM.

For the compound `CC(C)c1cnn2c(NCc3nc4ccccc4[nH]3)nc(N(C)CC(C)(C)O)nc12` [Example 5, 1-{[4-{[(1H-benzimidazol-2-yl)methyl]amino}-8-(propan-2-yl)pyrazolo[1,5-a][1,3,5]triazin-2-yl](methyl)amino}-2-methylpropan-2-ol], the IC50 at CDK2/CycE is 1.36 µM.

The record behind these values is patent US20230117034A1, “PYRAZOLOTRIAZINES” (Bayer Aktiengesellschaft, priority 2019, published 2023).
